Test results: patent publication US6849405B2, “Translation enhancer element of the human amyloid precursor protein gene” (The Brigham and Women's Hospital, Inc., priority 1997, dated 2005)

How the values were obtained:
[1] = test system: APP(s) secretion from primary human astrocytes; assay: Secretion of APP(s) (protease-nexin II) into medium from primary astrocytes; type: cell-based; conditions: 2 hour pulse labeling
Experimental: (§1) Secretion and labeling of APP(s) (protease-nexin-2) from primary astrocytes by IL-1 was measured in a separate set of experiments. Medium from 100 mm dishes (10 ml) of astrocyte cultures was collected after a 2-hour pulse labeling with 200 μCi/ml [^35S]-methionine. APP in 5 ml of precleared medium was immunoprecipitated using a 1:1500 dilution of rabbit polyclonal serum specific for amino acids 595-611 of APP (R1736, D. Selko). Apolipoprotein E was immunoprecipitated from 5 ml of culture supernatant using a 1:200 dilution of a polyclonal antiserum (Chemicon).
(§2) In all labeling experiments, immunoprecipitated protein was collected by the binding of antibody-labeled antigen complexes to Protein A Sepharose™ beads. Immunoprecipitated samples were applied to 10-20% tris-tricine gels (Novex) and the samples were electrophoresed in tris-tricine buffer according to the manufacturer's instructions. The gels were fixed with 25% methanol, […] for 1 hour, treated with fluorographic reagent (Amplify, Amersham) for 30 minutes, dried, and exposed to X-omat Kodak film overnight at −80° C.

[2] = test system: Apo-E protein synthesis; assay: Apo-E protein synthesis (internal standard), primary astrocytes; type: cell-based; conditions: primary human astrocytes
Experimental: as §1, §2

[3] = test system: APP synthesis in human astrocytoma (U373MG) cells; assay: APP synthesis, [35S]-methionine labeling and immunoprecipitation, astrocytoma cells; type: cell-based; conditions: 0.5 ng/ml, 16 hrs, maximal
Experimental: Primary human astrocytes were prepared by trypsinization of human fetal brain tissue by a previously described method (Das, et al., Neuron 14; 447 (1995)). Cells were seeded onto poly-L-lysine (10 μg/ml) coated plates and were grown to 70% confluence in DMEM medium, (low glucose) supplemented with 10% fetal bovine serum. In order to eliminate microglia, the cultures were treated with 5 mM H-Leu-O-methylester (Guilian, J. Neurosci. Res. 18:155 (1987)). For immunofluorescence, cells were replated at a density of 100,000 cells per 60-mm petri dish on poly-L-lysine coated glass coverslips and grown for 24 hours in 0.5 ml of medium to allow the cells to attach. The presence of glial fibrillary acidic protein (GFAP) was detected by immunofluorescent staining of formaldehyde fixed cells using a 1:10 dilution of rabbit IgG1 antibody specific for human GFAP. Primary GFAP-specific antibody was added to the coverslips for 30 minutes at room temperature in phosphate buffered saline and 10% goat serum. The secondary antibodies used were goat anti-rabbit IgG conjugated to fluorescein isothiocyanate at a dilution of 1:100 (Boehringer). Fluorescence microscopy scored the cells used in the metabolic experiments as 95% pure astrocytes. […] The U373MG astrocytoma cell line was cultured on 100 mm uncoated dishes to 60-80% confluence in DMEM medium supplemented with 10% fetal bovine serum. […]

[4] = test system: APP/CAT mRNA; assay: RNase protection of APP/CAT mRNA in pSV2(APP)CAT-transfected astrocytoma cells; type: cell-based, human; conditions: 16 hours stimulation
Experimental: Cells were lysed in 2 ml of a buffer containing 4 M guanidinium thiocyanate, 25 mM NaOac, pH 6.0, 100 mm β-mercaptoethanol. RNA was prepared after shearing the DNA and centrifuging the lysate at 31K, 23° C. for 12 hours through 5 ml of 5.7 M CsCl2 cushion. This procedure ensured that CAT mRNAs and endogenous ferritin mRNAs were purified as a pellet without contamination from plasmid DNA containing transfected CAT gene sequences. The RNA pellet was resuspended in TES buffer (10 mM Tris, pH 7.6, 1 mM EDTA, 0.5% SDS) and was extracted with an equal volume of phenol/chloroform, ethanol-precipitated and resuspended in TES buffer.
Steady-state levels of transfected CAT mRNA from astrocytoma and neuroblastoma pSV2(APP)(CAT) transfectants was characterized by RNase protection. A 261 nucleotide ^32P-labeled cRNA was transcribed from a HindIII digested DNA template isolated from the CAT gene in the pSV2CAT subclone (Rogers, et al., Nucl. Acid Res. 22: 2678 (1994); Campbell, et al., Biochem. Biophys. Res. Commun. 160: 453 (1989); Fahmy, et al., Biochem. J. 296; 175 (1993)). Labeled cRNA, antisense to the CAT gene, was hybridized to 20 μg of mRNA purified from pSV2(APP)(CAT) transfectants of astrocytoma cells. […] Kinase labeled HaeIII-digested X-174 DNA fragments were used as DNA markers for autoradiography and quantitation of CAT mRNA levels.

| Substance | increased accumulation of APP(s) ([1]; medium) | ApoE protein synthesis [2] | increase in rate of APP synthesis [3] | decrease of steady-state level of CAT mRNA ([4]; pSV2(APP)CAT transfectants, two separate transfections) | enhanced secretion of APP(s) into the medium [1] | increase of steady-state APP/CAT mRNA level relative to unstimulated cells ([4]; pSV2(APP)CAT transfected astrocytoma cells) |
| --- | --- | --- | --- | --- | --- | --- |
| interleukin-1α [IL-1α] | 50% | no increase | 2.8 fold | 50% | – | – |
| interleukin-1β [IL-1β] | – | no increase | 4.3 fold | – | 1.8 fold | 30% |
